Assay results: article PMC5074076, “Novel minimal physiologically-based model for the prediction of passive tubular reabsorption and renal excretion clearance” (European Journal of Pharmaceutical Sciences, 2016)
Where “and” joins values, the source holds several entries; their conditions need not be identical. Equal values may be shown once. Read-outs that look alike come from different tables or passages of the source.

Key:
[1] = LogD6.5 estimated from LogD7.4 and pKa; details: octanol/buffer, pH 6.5
From the text: (§1) The pKa values associated with ionisable centres identified within a given drug were used to calculate the fraction of drug ionised at pH 6.5. Drugs were then classified into groups as follows: drugs with > 50% unionised at pH 6.5 were classified as “Neutral”; drugs with > 50% ionised as mono −/di −/tri-protic acids or bases were classified as “Acid” or “Base”, respectively; “Zwitterions” were classified as drugs with > 50% ionised, with the major ionised species having no net charge; all other drugs were classified as amphoteric. […] LogD6.5 for neutral, amphoteric and zwitterion drugs were assumed to be equal to LogD7.4.

[2] = Caco-2 apparent permeability (Papp), apical to basolateral, pH 6.5-7.4 gradient, efflux inhibitor cocktail; details: human, Caco-2, pH 6.5
Description: (§2) The assay was performed using the apical to basolateral pH gradient format of pH 6.5 to pH 7.4. […] The efflux transporter inhibitor cocktail was used to minimise the effect of efflux transporters expressed in Caco-2 cells (e.g. P-glycoprotein, BCRP and MRP2) on the estimate of apical to basolateral Papp of substrates for such transporters.

physchem = details: pH 7.4
From the text: as §1

[3] = Observed clearance ratio and fraction reabsorbed (Freab, Freab′) calculated from CLR, fu,p and GFR; details: for Apparent Freab / Apparent Freab’: calculated from observed CLR, fu,p and GFR; for Freab: observed/apparent, 1 - CLR/(GFR x fu,p), GFR 120 mL/min
Description: The clearance ratio was calculated from clinical data using Eqs. […] For the remaining drugs the fraction reabsorbed (Freab) was calculated using Eq.
GFR values for healthy subjects may vary as a result of biological as well as inter-individual variation and also the method of measurement. […] Individual GFR values for subjects in clinical trials databases were generally not available.
In the proposed model, the nephron is represented as five compartments, namely the glomerulus and four tubular regions, as depicted in Fig. 1. The tubular compartments in the model, listed in anatomical order starting from the glomerulus are: the proximal tubule (PT), the loop of Henle (LoH), the distal tubule (DT) and the collecting duct (CD). […] The relationship between Freab′ and Freab is shown in Eq. (11). The predicted overall Freab′ was calculated from the predicted Freab′ in each (i) tubular region (Freab,i′), as shown in Eq. (12).

[4] = cited from earlier work; for CLR: healthy adult subjects, overall weighted mean of literature values, absolute (not normalised), ref Supplementary Results Table S2.1; for Overall weighted mean CLR: healthy subjects, plasma and urine data from same subjects, normalised for subject weight and body surface area where necessary; for Overall weighted mean CLR / CLR Observed: ref Table S2.1; for CLR Observed: overall weighted mean of values obtained from a literature survey
[5] = Ionisation classification at pH 6.5 from pKa; type: physicochemical; details: predominant species (> 50%) at pH 6.5 from measured or calculated pKa
From the text: as §1

[6] = pKa, potentiometric AstraZeneca in-house assay (or ACD / BioByte)
From the text: as §1

[7] = Papp-Freab′ calibration of Caco-2 Papp with reference drugs and CLR prediction; parameters: species or system human; details: reference drugs; calibrated Caco-2 Papp after Hill equation fitting
From the text: To account for this and to allow the Caco-2 data in the present study to be transferable to other assay formats/laboratories, a Papp–Freab′ calibration method was explored by splitting the available Papp and Freab′ data into ‘reference’ and internal ‘validation’ subsets. […] The calibration approach is proposed as a pragmatic method to account for inter-assay/inter-laboratory differences; herein it is applied to the current dataset only, and not external data as intended for future studies.
In order to evaluate the application of Papp–Freab′ calibration (Eq. (17)), 11 drugs were selected as reference ‘calibrator’ drugs (Papp,ref) covering a representative range of Freab′ and Papp values (Table 5). The remaining 34 drugs were treated as an internal ‘validation’ set.

Caco-2 cell monolayers = assay: Caco-2 apparent permeability (Papp), apical to basolateral, pH 6.5-7.4 gradient, efflux inhibitor cocktail; details: Caco-2, apical to basolateral, pH 6.5 to 7.4, efflux inhibitor cocktail, 2 h
Description: as §2

[8] = pKa (acid), measured, potentiometric
[9] = pKa (base), measured, potentiometric

SMILES	logD [1]	Papp A→B at 2 h [2] [×10⁻⁶ cm/s]	logD (physchem)	Apparent Freab [3]	Apparent Freab’ [3]	Freab [3]	CLR [4]	Overall weighted mean CLR [4] [mL/min]	CLR Observed [4] [mL/min]	Ionisation at pH 6.5 [5]	logD (physchem; octanol/buffer)	pKa [6, 8]	pKa [6, 9]	Freab ([3]; listed as isoxicam)	Freab′ ([3]; observed, fraction of equilibrium reached between urine and plasma)	CLR ([4]; listed as isoxicam) [mL/min]	pKa [6]	Papp,ref,calibrated [7]	Papp (Caco-2 cell monolayers)	Freab ([3]; listed as probenecid)
CCCN1CCCC[C@H]1C(=O)Nc1c(C)cccc1C [Ropivacaine]	1.27	32.3	2.1	0.547	0.552	0.55	2.73 mL/min	2.7	2.73	Base										
CC1(C)O[C@@H]2[C@@H](CO[C@@]3(COS(N)(=O)=O)OC(C)(C)O[C@@H]23)O1 [Topiramate]	0.61	46.2		0.856	0.863	0.86	15.1 mL/min	15.1	15.05	Neutral	0.6									
CN(C)CCC=C1c2ccccc2COc2ccccc21 [Doxepin]	1.41	36.5		0.638	0.643	0.64	9.75 mL/min	9.8	9.75	Base	2.23									
CN1CCN(c2cc3c(cc2F)c(=O)c(C(=O)O)cn3-c2ccc(F)cc2)CC1 [Difloxacin]		74.6		0.939	0.947	0.94	4.54 mL/min	4.5	4.54	Zwitterion		5.81	7.39							
Cc1c(F)c(N2CCNC(C)C2)cc2c1c(=O)c(C(=O)O)cn2C1CC1 (centres unmarked) [Grepafloxacin]	0.5	110		0.350	0.353	0.35	47.6 mL/min	47.6	47.60	Zwitterion	0.5									
CCN(CC)CCCN(c1ccccc1)C1Cc2ccccc2C1 [Aprindine]	1.53	31.8		0.785	0.791	0.78	1.28 mL/min	1.3	1.28	Base	2.5									
COc1ccc(C(CN(C)C)C2(O)CCCCC2)cc1 (centres unmarked) [Venlafaxine]	0.05	27.6	0.95	0.088	0.089	0.09	80.0 mL/min	80.0	80.00	Base										
CN(C)CCCN1c2ccccc2CCc2ccccc21 [Imipramine]													9.17							
Cc1cc(NC(=O)C2=C(O)c3ccccc3S(=O)(=O)N2C)no1 [Isoxicam]	0.7	142		0.995	1.003	1.00	0.02 mL/min		0.02	Acid		3.84		≥ 0.99	1	0.022				
COCCc1ccc(OCC(O)CNC(C)C)cc1 (centres unmarked) [Metoprolol]		17		-0.050	-0.050		110 mL/min	109.6	109.58	Base							9.4			
C[C@]12C=CC(=O)C=C1CC[C@@H]1[C@@H]2C(=O)C[C@@]2(C)[C@H]1CC[C@]2(O)C(=O)CO [Prednisone]	1.25	37.3		0.299	0.301	0.30	37.9 mL/min	37.9	37.87	Neutral	1.25									
CC(C)NCC(O)COc1ccc(CCOCC2CC2)cc1 (centres unmarked) [Betaxolol]		20		0.081	0.081	0.08	49.6 mL/min	49.6	49.64	Base	0.63		9.53							
NC(=O)c1ncn([C@@H]2O[C@H](CO)[C@@H](O)[C@H]2O)n1 [Ribavirin]		1.55		0.084	0.085	0.08	109.9 mL/min and 110 mL/min	109.9	109.94	Neutral								0.03 × 10^− 6 cm/s		
CN(C)[C@@H]1C(O)=C(C(N)=O)C(=O)[C@@]2(O)C(O)=C3C(=O)c4c(O)cccc4[C@@](C)(O)[C@H]3[C@H](O)[C@@H]12 [Oxytetracycline]		0.85		0.019	0.019	0.02	90.8 mL/min	90.8	90.80	Zwitterion								0.01 × 10^− 6 cm/s	0.85 × 10^− 6 cm/s	
CCCN(CCC)S(=O)(=O)c1ccc(C(=O)O)cc1 [Probenecid]	0.76	84.5		0.955	0.963	0.96	0.50 mL/min	0.5	0.50	Acid		3.36								0.955
CCCCC1=NC2(CCCC2)C(=O)N1Cc1ccc(-c2ccccc2-c2nnn[nH]2)cc1 [Irbesartan]	2.19	44		0.623	0.628	0.62	2.37 mL/min	2.4	2.37	Acid	1.29	3.91								
O=C(NCCN1CCOCC1)c1ccc(Cl)cc1 [Moclobemide]	1.34	64.4		0.943	0.951	0.94	3.42 mL/min	3.4	3.42	Base	1.6									
N=C(N)c1ccc(CNC(=O)[C@@H]2CCN2C(=O)[C@H](NCC(=O)O)C2CCCCC2)cc1 [Melagatran]		0.145		-0.021	-0.021		114 mL/min	113.7	113.74	Amphoteric		2.12								
